Source: paper PMC11672801, “Synthesis of Temporin-SHa Retro Analogs with Lysine Addition/Substitution and Antibiotic Conjugation to Enhance Antibacterial, Antifungal, and Anticancer Activities” (Antibiotics, 2024)
≈ marks a conversion by molar mass, not a printed value. Like-named read-outs stand apart in the source and are kept apart here. Where a SMILES comes first, the peptide text is derived from it. [ ]: non-standard residue; d: D form. The star is where a group is joined. Levofloxacinoyl = C[C@H]1COc2c(N3CCN(C)CC3)c(F)cc3c(=O)c(C(=O)*)cn1c23

Columns and labels:
C. albicans (ATCC 36082) = assay: microbe, parasite or virus in culture
Method: Candida albicans (ATCC 36082) was cultured on Sabourad Dextrose Agar (SDA). A single colony was inoculated in Sabouraud Dextrose Broth (SDB) medium and grown overnight at 37 °C while shaking. The next day, the susceptibility of C. albicans was tested using a broth microdilution assay. Peptide analogs were diluted in SDB media by two-fold dilution, resulting in 100 µL of medium containing increasing concentrations of analogs. The overnight culture (turbidity at OD600 = 1) was 1000× diluted in SDB. Then 100 µL of this suspension was added to each well, resulting in a final 200 µL suspension containing 2–4 × 10^5 CFU/mL. The plate was incubated at 37 °C for 24 h. The next day, MIC (Minimum Inhibitory Concentration) values were determined as the concentrations of peptides causing > 99% inhibition of yeast growth.

[1] = system: Human breast cancer (MCF-7) cells; assay: cells; type: cell-based
Method: (§1) Human breast cancer (MCF-7) and human cervical cancer (HeLa) cells were obtained from the cell culture bank of PCMD in ICCBS, University of Karachi. These cells were maintained in Dulbecco’s Modified Eagle Medium (DMEM), supplemented with 10% fetal bovine serum, and incubated at 37 °C and 5% CO2. The antiproliferative activity of the samples was determined by a MTT assay. Briefly, the cells were washed with PBS and trypsinized. After determination of the cell number using Malassez cell counting, 100 µL of the cell suspension were seeded in a 96-well plate at the density of 6000 cells/well and incubated at 37 °C and 5% CO2. After 24 h, the cells were treated with increasing concentrations of analogs. The next day, media was removed and 200 µL of MTT dye (0.5 mg/mL) was added in each well and incubated for 3 h at 37 °C in 5% CO2 incubator. Then, the media was removed and 100 µL of DMSO was added to solubilize formazan crystals. After one minute of shaking, the absorbance was recorded at 540 nm in microplate reader (Multiskan GO, ThermoScientific, Waltham, MA, USA). Finally, the percent inhibition of proliferation was calculated using the following formula: % inhibition of proliferation=O.D of treated well−O.D of media control/O.D of untreated control−O.D of media control×100

[2] = system: human cervical cancer (HeLa) cells; assay: cells; type: cell-based
Method: as §1

B. subtilis (ATCC 23857) = assay: Antibacterial broth microdilution MIC assay; type: cell-based, Bacillus subtilis; conditions: >99% inhibition of growth, MH broth, 20-22 h, 37 °C
Method: (§2) The antibacterial activity of peptide analogs was tested against different bacterial strains, i.e., Salmonella enterica subsp. enterica serotype Typhimurium or Salmonella typhi (ATCC 14028), Staphylococcus aureus (NCTC 13277), Bacillus subtilis (ATCC 23857), Escherichia coli (ATCC 25922), and Pseudomonas aeruginosa (ATCC 10145). These strains were obtained from the microbial bank of Dr. Panjwani Center for Molecular Medicine and Drug research (PCMD), International Center for Chemical and Biological Sciences (ICCBS), University of Karachi. Colonies of these bacterial strains were grown in respective agar media, then inoculated in Mueller Hinton (MH) broth (Oxoid, UK) and incubated at 37 °C overnight. The peptide solutions were first diluted 1 in 100 (from the stock solution at 20 mM) and then further two-fold dilution in MH broth in a sterile 96-well plate was performed, resulting in 100 µL of broth containing increasing concentrations of analogs. Bacteria in their exponential growth phase were diluted in MH broth, and 100 µL of this suspension was added in each well. […] Then, these plates were incubated at 37 °C for 20–22 h. MIC (Minimum Inhibitory Concentration) values were determined as the concentrations of peptides causing >99% inhibition of bacterial growth.

[3] = system: P. aeruginosa (ATCC 10145); assay: Antibacterial broth microdilution MIC assay; type: cell-based, Pseudomonas aeruginosa; conditions: >99% inhibition of growth, MH broth, 20-22 h, 37 °C
Method: as §2

E. coli (ATCC 25922) = assay: Antibacterial broth microdilution MIC assay; type: cell-based, Escherichia coli; conditions: >99% inhibition of growth, MH broth, 20-22 h, 37 °C
Method: as §2

S. typhi (ATCC 14028) [4] = assay: microbe, parasite or virus in culture; conditions: Salmonella enterica, read-out: MIC S. typhi (ATCC 14028)
[5] = system: human red blood cells (RBC); assay: Hemolytic assay; type: cell-based; conditions: 1 h
Method: For the hemolytic assay, fresh human blood (2 mL) was obtained from a healthy donor in EDTA tube while following the protocol of approval from the Independent Ethics Committee of ICCBS (approval number ICCBS/IEC-047-HB-2019/Protocol/1.0). The blood was centrifuged and upper supernatant plasma was removed. The cell pellets were washed with sterile PBS three times. The washed blood cells were then diluted 25 times to make 4% concentration of the initial blood cells. Red blood cells (500 µL) were treated with increasing concentrations of analogs, with triton X-100 at 0.1% being used as positive control giving 100% hemolysis. After 1 h of incubation at 37 °C, tubes were centrifuged at 800 rpm for 5 min to pellet down red blood cells. After centrifugation, 200 µL of supernatant were transferred into a 96 well plate and the absorbance was recorded at 576 nm using a microplate reader (MultiSkan Go, ThermoScientific). Then, the following formula was applied to calculate percent hemolysis: % Hemolysis=O.D of test sample−O.D of PBS control/O.D of Tritox×positive control−O.D of PBS control×100

S. aureus (NCTC 13277) [6] = assay: microbe, parasite or virus in culture; conditions: Staphylococcus aureus, NCTC13277, read-out: MIC S. aureus (NCTC 13277)
[7] = system: human red blood cells (RBC); conditions: previously reported; cited from earlier work
S. typhi (ATCC 14028) [8] = system: S. typhi (ATCC 14028)
S. aureus (NCTC 13277) [9] = conditions: >99% inhibition of growth, MH broth, 20-22 h, 37 °C
[10] = system: cancer cells (MCF-7, HeLa); parameters: species or system human
Method: The selectivity of action of the analogs against micro-organisms or cancer cells was further evaluated through calculation of their selectivity indexes (SIs). SIs were determined using either the MIC on micro-organisms or IC50 on cancer cells compared to HC50 values, and they are reported in Table 6.

E. coli = assay: Atomic force microscopy imaging of treated bacteria; type: cell-based, Escherichia coli; conditions: 2XMIC, overnight, tapping mode
Method: (§3) Different bacteria (S. typhi, E. coli, and P. aeruginosa) adjusted to 2–3 × 10^7 CFU/mL were treated with 2XMIC values of analogs and incubated overnight at 37 °C. The next day, the bacteria were washed, dispersed in sterile pure grade water, dispensed in poly-L-lysine-coated mica slides, and left for air drying. Changes in the morphology of the bacteria were studied with an atomic force microscope (Agilent 5500, Chandler, AZ, USA). The whole analysis was carried out in tapping mode. Images were collected and optimized at a scan velocity of 1–5 µm/s and 512 × 512-line resolution and processed through PicoView 1.2 imaging software.

[11] = Circular dichroism secondary structure analysis (Bestsel) in 20 mM SDS; type: physicochemical; conditions: CD, 15 µM peptide in 20 mM SDS, 22 °C
Method: The far-ultraviolet circular dichroism (CD) spectra were recorded using a JASCO J-810 spectropolarimeter (Jasco, Tokyo, Japan), with measurements taken in a quartz cuvette with a 10 mm path length. The temperature was kept at 22 °C, and the instrument was calibrated with D-(+)-10-camphorsulfonic acid. Peptides were dissolved in 20 mM SDS to a final concentration of 15 µM. The CD spectra were collected over a wavelength range of 190 to 260 nm with a bandwidth of 2 nm. Each spectrum was recorded with ten consecutive scans at a rate of 50 nm/min, and the baseline was obtained under identical conditions. Secondary structures, i.e., the percentage of alpha-helix and other secondary structures, were quantified from CD data using Bestsel software (https://bestsel.elte.hu/index.php, accessed on 22 October 2024).

P. aeruginosa = assay: Atomic force microscopy imaging of treated bacteria; type: cell-based, Pseudomonas aeruginosa; conditions: 2XMIC, overnight, tapping mode
Method: as §3

[12] = MTT, 24 h exposure, read-out: IC50 on Cervical Cancer (HeLa)

C[C@H]1COc2c(N3CCN(C)CC3)c(F)cc3c(=O)c(C(=O)O)cn1c23 [Levofloxacin, reference compound]
MIC (C. albicans (ATCC 36082); Candida albicans, ATCC36082, 24 h, read-out: MIC C. albicans (ATCC 36082)): > 250 µM
IC50 ([1]; Homo sapiens, MCF7, MTT, 24 h exposure, read-out: IC50 on Breast Cancer (MCF-7)): > 100 µM
IC50 ([2]; Homo sapiens, HeLa, MTT, 24 h exposure, read-out: IC50 on Cervical Cancer (HeLa)): > 100 µM
MIC (B. subtilis (ATCC 23857); Bacillus subtilis, ATCC23857): 0.39 µM (≈ 0.141 µg/mL)
MIC ([3]; Pseudomonas aeruginosa, ATCC10145): 1.56 µM (≈ 0.564 µg/mL)
MIC (E. coli (ATCC 25922); Escherichia coli, ATCC25922): 0.78 µM (≈ 0.282 µg/mL)
MIC (S. typhi (ATCC 14028) [4]): 0.39 µM (≈ 0.141 µg/mL)
HC50 on Human Red Blood Cells (RBCs) ([5]; human): >100 µM
MIC (S. aureus (NCTC 13277) [6]): 25 µM (≈ 9.03 µg/mL)

CC[C@H](C)[C@H](NC(=O)[C@@H](C)NC(=O)[C@H](CO)NC(=O)[C@H](CC(C)C)NC(=O)[C@@H](N)Cc1ccccc1)C(=O)N[C@H](C(=O)NCC(=O)N[C@@H](CCSC)C(=O)N[C@@H](CC(C)C)C(=O)NCC(=O)N[C@@H](CCCCN)C(=O)N[C@@H](CC(C)C)C(=O)N[C@@H](Cc1ccccc1)C(N)=O)C(C)C [NST-2 (1), H-Phe^1-Leu^2-Ser^3-D-Ala^4-Ile^5-Val^6-Gly^7-Met^8-Leu^9-Gly^10-Lys^11-Leu^12-Phe^13-NH2] (H-FLS[dA]IVGMLGKLF-NH2)
hemolysis HC50 [7]: 90.0 µM
MIC S. typhi (ATCC 14028) (S. typhi (ATCC 14028) [8]; ATCC 14028): 250 µM (≈ 349 µg/mL)
MIC C. albicans (ATCC 36082) (C. albicans (ATCC 36082); >99% inhibition of yeast growth, SDB, 24 h, 37 °C): 20 µM (≈ 27.9 µg/mL)
MIC S. aureus (NCTC 13277) (S. aureus (NCTC 13277) [9]): 14.34 µM (≈ 20 µg/mL)
IC50 ([1]; lowest IC50 on cancer cells = MCF-7 (peptides 1, 2, 7), from Table 5, read-out: Lower IC50): 17.9 µM
IC50 [2, 12]: > 100 µM
MIC (B. subtilis (ATCC 23857)): 6.25 µM (≈ 8.72 µg/mL)
MIC [3]: >250 µM
MIC (E. coli (ATCC 25922)): 125 µM (≈ 174 µg/mL)
HC50 on Human Red Blood Cells (RBCs) ([5]; 37 °C, 0.1% triton X-100 = 100% hemolysis): 90.0 µM

CC[C@H](C)[C@H](NC(=O)[C@@H](NC(=O)CNC(=O)[C@H](CCSC)NC(=O)[C@H](CC(C)C)NC(=O)CNC(=O)[C@H](CCCCNC(=O)c1cn2c3c(c(N4CCN(C)CC4)c(F)cc3c1=O)OC[C@@H]2C)NC(=O)[C@H](CC(C)C)NC(=O)[C@@H](N)Cc1ccccc1)C(C)C)C(=O)N[C@H](C)C(=O)N[C@@H](CO)C(=O)N[C@@H](CC(C)C)C(=O)N[C@@H](Cc1ccccc1)C(=O)N[C@@H](CCCCN)C(N)=O [RLFP-2 (5), H-Phe^1-Leu^2-Lys^3(LF)-Gly^4-Leu^5-Met^6-Gly^7-Val^8-Ile^9-D-Ala^10-Ser^11-Leu^12-Phe^13-Lys^14-NH2] (H-FLK(Levofloxacinoyl)GLMGVI[dA]SLFK-NH2)
MIC S. typhi (ATCC 14028) (S. typhi (ATCC 14028) [8]; ATCC 14028): 200 µM (≈ 373 µg/mL)
MIC C. albicans (ATCC 36082) (C. albicans (ATCC 36082); ATCC 36082, 24 h): >250 µM
MIC S. aureus (NCTC 13277) (S. aureus (NCTC 13277) [9]): 100 µM (≈ 187 µg/mL)
IC50 ([1]; 24 h): > 100 µM
IC50 ([2]; 24 h): > 100 µM
MIC (B. subtilis (ATCC 23857)): 50 µM (≈ 93.3 µg/mL)
MIC [3]: >200 µM
MIC (E. coli (ATCC 25922)): >200 µM
IC50 [10]: > 100 µM
HC50 on Human Red Blood Cells (RBCs) ([5]; red cells of human): 25.0 µM

CC[C@H](C)[C@H](NC(=O)[C@@H](NC(=O)CNC(=O)[C@H](CCSC)NC(=O)[C@H](CC(C)C)NC(=O)CNC(=O)[C@H](CCCCN)NC(=O)[C@H](CC(C)C)NC(=O)[C@@H](N)Cc1ccccc1)C(C)C)C(=O)N[C@H](C)C(=O)N[C@@H](CO)C(=O)N[C@@H](CC(C)C)C(=O)N[C@@H](Cc1ccccc1)C(=O)N[C@@H](CCCCN)C(N)=O [RSP-1 (3), H-Phe^1-Leu^2-Lys^3-Gly^4-Leu^5-Met^6-Gly^7-Val^8-Ile^9-D-Ala^10-Ser^11-Leu^12-Phe^13-Lys^14-NH2] (H-FLKGLMGVI[dA]SLFK-NH2)
AFM morphology of E. coli after treatment (E. coli): significant damages to the bacteria
MIC S. typhi (ATCC 14028) (S. typhi (ATCC 14028) [8]; >99% inhibition of growth, MH broth, 20-22 h, 37 °C): 50 µM (≈ 76.1 µg/mL)
MIC C. albicans (ATCC 36082) (C. albicans (ATCC 36082); ATCC 36082, 24 h): 15.6 µM (≈ 23.8 µg/mL)
MIC S. aureus (NCTC 13277) (S. aureus (NCTC 13277) [9]): 6.25 µM (≈ 9.52 µg/mL)
IC50 ([1]; 24 h): 42.7 µM
IC50 [2, 12]: 33.5 µM
Antiparallel (%) [11]: 18.2%
Helix (%) [11]: 81.8%
Others (%) [11]: 0.00%
Parallel (%) [11]: 0.00%
Turn (%) [11]: 0.00%
MIC (B. subtilis (ATCC 23857)): 1.56 µM (≈ 2.38 µg/mL)
MIC [3]: 50 µM (≈ 76.1 µg/mL)
MIC (E. coli (ATCC 25922)): 25 µM (≈ 38.1 µg/mL)
AFM morphology of P. aeruginosa after treatment (P. aeruginosa): significant damages to the bacteria
HC50 on Human Red Blood Cells (RBCs) ([5]; red cells of human): 51.0 µM
